Among the data in ChEMBL document CHEMBL5226345, “Lactate dehydrogenase and malate dehydrogenase: Potential antiparasitic targets for drug development studies” (Bioorg Med Chem, 2021) are IC50 values, retold here.

Test [1] in a line: Inhibition of Toxoplasma gondii LDH1.
The nature of test [2]: Inhibition of Toxoplasma gondii LDH2.
Test [3] is described as follows: Inhibition of recombinant his tagged Cryptosporidium parvum LDH expressed in Escherichia coli by spectrophotometric based assay.
Test [4] in a line: Inhibition of Plasmodium falciparum LDH.
The nature of test [5]: Inhibition of Plasmodium falciparum MDH.
The nature of test [6]: Inhibition of Trichomonas vaginalis LDH.
Test [7] can be described thus: Inhibition of Plasmodium falciparum LDH by ELISA method.
Test [8] is described as follows: Inhibition of Schistosoma LDH.

One may read the IC50 as the concentration needed to halve the response being measured. For the compound `CCCc1c(O)c(O)c(C(=O)O)c2cc(Cc3ccccc3)c(C)cc12`, the IC50 in test [1] came out at 3.5 µM; in test [2], 0.9 µM; in test [3], 39.5 µM; in test [4] it was 0.14 µM.
For `COc1ccc(CNC(=O)C2=CC(=O)c3c(O)cc(OCCc4ccc(NC(=O)C(=O)O)c(C)c4)cc3C2)cc1`, the IC50 in test [5] stood at 2.66 µM; in test [4] it was 1.75 µM.
In test [6], `O=C(Nc1ccccc1)c1nnn(-c2ccnc3cc(Cl)ccc23)c1-c1ccccc1` had an IC50 of 100 µM.
On to `O=C(CSc1ccccc1)Nc1cccc2ccccc12`, for which, in test [3], the IC50 came out at 79.6 µM.
`CC(C)c1c(C(=O)Nc2ccccc2)c(-c2ccccc2)c(-c2ccc(F)cc2)n1CC[C@@H](O)C[C@@H](O)CC(=O)O` [ATORVASTATIN] had an IC50 in test [7] of 13.1 µM.
In the case of `c1ccc2[nH]cnc2c1` [BENZIMIDAZOLE], the IC50 result in test [8] is given as “Not Active”.
Regarding `Cc1cc2c(C(C)C)c(O)c(O)c(C=O)c2c(O)c1-c1c(C)cc2c(C(C)C)c(O)c(O)c(C=O)c2c1O` [GOSSYPOL], the IC50 stood at 0.7 µM in test [1], 0.1 µM in test [2] and 11.8 µM in test [3].
Consider `CCC(C)n1ncn(-c2ccc(N3CCN(c4ccc(OCC5COC(Cn6cncn6)(c6ccc(Cl)cc6Cl)O5)cc4)CC3)cc2)c1=O` (stereo not drawn) [ITRACONAZOLE], for which the IC50 in test [7] was 9.3 µM.
In the case of `NC(=O)C(=O)O` [OXAMATE], the IC50 in test [5] was determined as 2.66 µM.
Turning to `CC[C@@H]([C@H](C)O)n1ncn(-c2ccc(N3CCN(c4ccc(OC[C@@H]5CO[C@@](Cn6cncn6)(c6ccc(F)cc6F)C5)cc4)CC3)cc2)c1=O` [POSACONAZOLE], in test [7], the IC50 was 2.6 µM.
Regarding `O=C(C1CCCCC1)N1CC(=O)N2CCc3ccccc3C2C1` (stereo not drawn) [PRAZIQUANTEL], the IC50 result in test [8] was “Not Active”.
Consider `O=C1c2ccccc2C(=O)c2c(O)c(O)cc(O)c21` [PURPURIN], for which the 50% inhibitory concentration (IC50) in test [3] is 46.3 µM.
